Laboratory results from the NIST ThermoML archive (doi:10.1016/j.jct.2015.08.014).

Test: xn = mol fraction of the nth substance listed
Conditions: 100 kPa, Liquid; for electrical conductivity: Alternating current cell with electrodes; for mass density: Vibrating tube method; for viscosity: Capillary tube (Ostwald / Ubbelohde) method

CCCC[N+]1(C)CCCC1.N#CN=C=[N-] [1-butyl-1-methylpyrrolidinium dicyanamide] + O=C1CCCO1
Conditions | electrical conductivity [S/m]
273.15 K, Frequency=0.00892857 MHz, x1 = 0.9013 | 0.563
273.15 K, Frequency=0.00892857 MHz, x1 = 1 | 0.523
273.15 K, Frequency=0.00961538 MHz, x1 = 0.0463 | 0.978
273.15 K, Frequency=0.00961538 MHz, x1 = 0.0987 | 1.43
273.15 K, Frequency=0.00961538 MHz, x1 = 0.1449 | 1.57
273.15 K, Frequency=0.00961538 MHz, x1 = 0.1859 | 1.635
273.15 K, Frequency=0.00961538 MHz, x1 = 0.2493 | 1.517
273.15 K, Frequency=0.00961538 MHz, x1 = 0.3029 | 1.42
273.15 K, Frequency=0.00961538 MHz, x1 = 0.3845 | 1.25
273.15 K, Frequency=0.00961538 MHz, x1 = 0.4985 | 1.03
273.15 K, Frequency=0.00961538 MHz, x1 = 0.6954 | 0.742
273.15 K, Frequency=0.00961538 MHz, x1 = 0.9013 | 0.563
273.15 K, Frequency=0.00961538 MHz, x1 = 1 | 0.523
273.15 K, Frequency=0.01 MHz, x1 = 0.0463 | 0.978
273.15 K, Frequency=0.01 MHz, x1 = 0.0987 | 1.43
273.15 K, Frequency=0.01 MHz, x1 = 0.1449 | 1.57
273.15 K, Frequency=0.01 MHz, x1 = 0.1859 | 1.635
273.15 K, Frequency=0.01 MHz, x1 = 0.2493 | 1.517
273.15 K, Frequency=0.01 MHz, x1 = 0.3029 | 1.42
273.15 K, Frequency=0.01 MHz, x1 = 0.3845 | 1.25
273.15 K, Frequency=0.01 MHz, x1 = 0.4985 | 1.03
273.15 K, Frequency=0.01 MHz, x1 = 0.6954 | 0.742
273.15 K, Frequency=0.01 MHz, x1 = 0.9013 | 0.563
273.15 K, Frequency=0.01 MHz, x1 = 1 | 0.523
283.15 K, Frequency=0.0005 MHz, x1 = 0.0463 | 1.16
283.15 K, Frequency=0.0005 MHz, x1 = 0.0987 | 1.73
283.15 K, Frequency=0.0005 MHz, x1 = 0.1449 | 1.92
283.15 K, Frequency=0.0005 MHz, x1 = 0.1859 | 2.018
283.15 K, Frequency=0.0005 MHz, x1 = 0.2493 | 1.921
283.15 K, Frequency=0.0005 MHz, x1 = 0.3029 | 1.84
283.15 K, Frequency=0.0005 MHz, x1 = 0.3845 | 1.65
283.15 K, Frequency=0.0005 MHz, x1 = 0.4985 | 1.407
283.15 K, Frequency=0.0005 MHz, x1 = 0.6954 | 1.07
283.15 K, Frequency=0.0005 MHz, x1 = 0.9013 | 0.849
283.15 K, Frequency=0.0005 MHz, x1 = 1 | 0.786
283.15 K, Frequency=0.001 MHz, x1 = 0.0463 | 1.16
283.15 K, Frequency=0.001 MHz, x1 = 0.0987 | 1.73
283.15 K, Frequency=0.001 MHz, x1 = 0.1449 | 1.92
283.15 K, Frequency=0.001 MHz, x1 = 0.1859 | 2.027
283.15 K, Frequency=0.001 MHz, x1 = 0.2493 | 1.923
283.15 K, Frequency=0.001 MHz, x1 = 0.3029 | 1.84
283.15 K, Frequency=0.001 MHz, x1 = 0.3845 | 1.65
283.15 K, Frequency=0.001 MHz, x1 = 0.4985 | 1.407
283.15 K, Frequency=0.001 MHz, x1 = 0.6954 | 1.07
283.15 K, Frequency=0.001 MHz, x1 = 0.9013 | 0.849
283.15 K, Frequency=0.001 MHz, x1 = 1 | 0.786
283.15 K, Frequency=0.0015 MHz, x1 = 0.0463 | 1.17
283.15 K, Frequency=0.0015 MHz, x1 = 0.0987 | 1.73
283.15 K, Frequency=0.0015 MHz, x1 = 0.1449 | 1.92
283.15 K, Frequency=0.0015 MHz, x1 = 0.1859 | 2.027
283.15 K, Frequency=0.0015 MHz, x1 = 0.2493 | 1.924
283.15 K, Frequency=0.0015 MHz, x1 = 0.3029 | 1.84
283.15 K, Frequency=0.0015 MHz, x1 = 0.3845 | 1.66
283.15 K, Frequency=0.0015 MHz, x1 = 0.4985 | 1.407
283.15 K, Frequency=0.0015 MHz, x1 = 0.6954 | 1.07
283.15 K, Frequency=0.0015 MHz, x1 = 0.9013 | 0.849
283.15 K, Frequency=0.0015 MHz, x1 = 1 | 0.786
283.15 K, Frequency=0.002 MHz, x1 = 0.0463 | 1.17
283.15 K, Frequency=0.002 MHz, x1 = 0.0987 | 1.73
283.15 K, Frequency=0.002 MHz, x1 = 0.1449 | 1.92
283.15 K, Frequency=0.002 MHz, x1 = 0.1859 | 2.027
283.15 K, Frequency=0.002 MHz, x1 = 0.2493 | 1.925
283.15 K, Frequency=0.002 MHz, x1 = 0.3029 | 1.84
283.15 K, Frequency=0.002 MHz, x1 = 0.3845 | 1.66
283.15 K, Frequency=0.002 MHz, x1 = 0.4985 | 1.407
283.15 K, Frequency=0.002 MHz, x1 = 0.6954 | 1.07
283.15 K, Frequency=0.002 MHz, x1 = 0.9013 | 0.849
283.15 K, Frequency=0.002 MHz, x1 = 1 | 0.786
283.15 K, Frequency=0.0025 MHz, x1 = 0.0463 | 1.17
283.15 K, Frequency=0.0025 MHz, x1 = 0.0987 | 1.73
283.15 K, Frequency=0.0025 MHz, x1 = 0.1449 | 1.93
283.15 K, Frequency=0.0025 MHz, x1 = 0.1859 | 2.028
283.15 K, Frequency=0.0025 MHz, x1 = 0.2493 | 1.925
283.15 K, Frequency=0.0025 MHz, x1 = 0.3029 | 1.84
283.15 K, Frequency=0.0025 MHz, x1 = 0.3845 | 1.66
283.15 K, Frequency=0.0025 MHz, x1 = 0.4985 | 1.407
283.15 K, Frequency=0.0025 MHz, x1 = 0.6954 | 1.07
283.15 K, Frequency=0.0025 MHz, x1 = 0.9013 | 0.849
283.15 K, Frequency=0.0025 MHz, x1 = 1 | 0.786
283.15 K, Frequency=0.003 MHz, x1 = 0.0463 | 1.17
283.15 K, Frequency=0.003 MHz, x1 = 0.0987 | 1.73
283.15 K, Frequency=0.003 MHz, x1 = 0.1449 | 1.93

Conditions | electrical conductivity, 283.15 K [S/m] | mass density, 273.15 K [kg/m3] | viscosity, 283.15 K [mPa·s]
x1 = 0.0463 | 1.17 | – | –
x1 = 0.0987 | 1.73 | 1124.75 | 3.75
x1 = 0.1449 | 1.93 | – | –
x1 = 0.1859 | 2.028 | 1107.12 | 5.58
x1 = 0.2493 | 1.926 | – | –
x1 = 0.3029 | 1.84 | 1087.92 | 8.99
x1 = 0.3845 | 1.66 | – | –
x1 = 0.4985 | 1.407 | 1063.96 | 17.71
x1 = 0.6954 | 1.07 | 1046.52 | 30.79
x1 = 0.9013 | 0.849 | 1032.97 | 49.24
x1 = 1 | 0.786 | 1027.69 | 59.6
